What was measured:
HER2 INS YVMA = target: T1, HER2 INS YVMA (Homo sapiens, UniProt P04626, INS775YVMA); assay: Lance Kinase Activity Assay, HER2 INS YVMA (Her2 Exon 20 INSYVMA Lance); assay type: biochemical; conditions: biochemical Lance assay
T1 construct: purchased DPF
In short: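 Kinase phosphorylates a ULight-labelled peptide substrate; Eu anti-phospho antibody gives TR-FRET (ex 340 nm, em 665/615 nm). Compounds in 1:3 serial dilution over 8 steps, reaction started with ATP, 1 h at room temperature, stopped with EDTA-containing detection mix for 1 h. IC50 from sigmoidal dose-response curves.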

[1] = target: Her2 Exon 20 INSYVMA Ba/F3 (Homo sapiens, UniProt P04626, DUP772-775, cells depend on it); assay: Her2 Exon 20 INSYVMA Ba/F3 CellTiter-Glo; assay type: cell-based; conditions: CellTiter-Glo, 72 h, read-out: Her2 Exon 20 INSYVMA Ba/F3 CTG IC50
In short: (§1)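 Using a 72 h viability readout, compound-treated Ba/F3 cells (pre-incubated 24 h after seeding) were lysed with CellTiter-Glo reagent and luminescence recorded. Potency was expressed as IC50 from a fitted dose–response curve.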

[2] = target: EGFR Exon 20 INSNPH Ba/F3 (Homo sapiens, UniProt P00533, DUP771-773, cells depend on it); assay: EGFR Exon 20 INSNPH Ba/F3 CellTiter-Glo; assay type: cell-based; conditions: CellTiter-Glo, 72 h, read-out: EGFR Exon 20 INSNPH Ba/F3 CTG IC50
In short: as §1

EGFR T790ML858R = EGFR T790ML858R (Homo sapiens, UniProt P00533, L858R/T790M); assay: EGFR T790ML858R Lance assay; assay type: biochemical
Description: (§2) Inhibition is indicated as […] [nM] (“−”=not measured). Compounds having an activity designated as “A” provided an IC50≤100 nM; compounds having an activity designated as “B” provided an 100 nM<IC50≤500 nM; compounds having an activity designated as “C” provided an 500 nM<IC50≤1000 nM; compounds having an activity designated as “D” provided an 1000 nM<IC50≤100000 nM; and compounds having an activity designated as “E” provided an IC50>10000 nM.

EGFR wt = EGFR wt (Homo sapiens, UniProt P00533); assay: EGFR wt Lance assay; assay type: biochemical
Description: as §2

H1975 = H1975 CellTiter-Glo; assay type: cell-based; conditions: Homo sapiens, NCI-H1975; 72 h compound incubation; read-out: H1975 CTG IC50
In short: (§3)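 Antiproliferative IC50 values come from a 72 h treatment of cultured cells, measured by CellTiter-Glo ATP luminescence. Only runs with a Z′-factor of at least 0.5, calculated from 16 vehicle and 16 Staurosporine (10 μM) control wells, are reported.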

A431 = A431 CellTiter-Glo; assay type: cell-based; conditions: Homo sapiens, A-431; 72 h compound incubation; read-out: A431 CTG IC50
In short: as §3

Sequence of EGFR T790ML858R (P00533 25-1210 T790M/L858R): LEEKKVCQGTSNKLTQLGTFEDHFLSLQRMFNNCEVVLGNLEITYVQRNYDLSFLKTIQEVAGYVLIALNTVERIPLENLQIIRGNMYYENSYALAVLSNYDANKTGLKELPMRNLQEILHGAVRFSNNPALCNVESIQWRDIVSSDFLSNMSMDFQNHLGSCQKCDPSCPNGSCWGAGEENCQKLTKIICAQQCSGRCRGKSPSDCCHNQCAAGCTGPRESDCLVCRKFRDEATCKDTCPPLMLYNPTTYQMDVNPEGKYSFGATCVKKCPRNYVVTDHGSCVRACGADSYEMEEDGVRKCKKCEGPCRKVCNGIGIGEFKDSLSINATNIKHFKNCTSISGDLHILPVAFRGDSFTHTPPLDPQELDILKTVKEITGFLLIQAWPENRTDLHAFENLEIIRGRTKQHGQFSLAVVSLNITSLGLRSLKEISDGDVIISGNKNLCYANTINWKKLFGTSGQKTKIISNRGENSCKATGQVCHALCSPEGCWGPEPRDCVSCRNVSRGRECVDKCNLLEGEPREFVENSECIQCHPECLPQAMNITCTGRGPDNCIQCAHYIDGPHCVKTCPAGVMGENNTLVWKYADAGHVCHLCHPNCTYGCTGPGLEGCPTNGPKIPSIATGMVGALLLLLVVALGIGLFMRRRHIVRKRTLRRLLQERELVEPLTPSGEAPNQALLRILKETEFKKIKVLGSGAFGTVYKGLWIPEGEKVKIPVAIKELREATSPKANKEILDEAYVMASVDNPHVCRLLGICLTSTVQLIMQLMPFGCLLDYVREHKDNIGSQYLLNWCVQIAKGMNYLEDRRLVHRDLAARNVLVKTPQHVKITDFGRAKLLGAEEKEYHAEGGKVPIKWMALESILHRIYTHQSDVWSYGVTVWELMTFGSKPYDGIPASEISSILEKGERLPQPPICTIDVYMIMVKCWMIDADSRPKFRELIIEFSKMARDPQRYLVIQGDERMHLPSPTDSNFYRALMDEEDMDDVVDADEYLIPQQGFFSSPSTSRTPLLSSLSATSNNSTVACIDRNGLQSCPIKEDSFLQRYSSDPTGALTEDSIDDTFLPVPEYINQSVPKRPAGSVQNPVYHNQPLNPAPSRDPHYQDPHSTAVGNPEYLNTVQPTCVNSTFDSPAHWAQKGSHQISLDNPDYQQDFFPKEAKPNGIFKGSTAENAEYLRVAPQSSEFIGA
Sequence of EGFR wt (P00533 25-1210): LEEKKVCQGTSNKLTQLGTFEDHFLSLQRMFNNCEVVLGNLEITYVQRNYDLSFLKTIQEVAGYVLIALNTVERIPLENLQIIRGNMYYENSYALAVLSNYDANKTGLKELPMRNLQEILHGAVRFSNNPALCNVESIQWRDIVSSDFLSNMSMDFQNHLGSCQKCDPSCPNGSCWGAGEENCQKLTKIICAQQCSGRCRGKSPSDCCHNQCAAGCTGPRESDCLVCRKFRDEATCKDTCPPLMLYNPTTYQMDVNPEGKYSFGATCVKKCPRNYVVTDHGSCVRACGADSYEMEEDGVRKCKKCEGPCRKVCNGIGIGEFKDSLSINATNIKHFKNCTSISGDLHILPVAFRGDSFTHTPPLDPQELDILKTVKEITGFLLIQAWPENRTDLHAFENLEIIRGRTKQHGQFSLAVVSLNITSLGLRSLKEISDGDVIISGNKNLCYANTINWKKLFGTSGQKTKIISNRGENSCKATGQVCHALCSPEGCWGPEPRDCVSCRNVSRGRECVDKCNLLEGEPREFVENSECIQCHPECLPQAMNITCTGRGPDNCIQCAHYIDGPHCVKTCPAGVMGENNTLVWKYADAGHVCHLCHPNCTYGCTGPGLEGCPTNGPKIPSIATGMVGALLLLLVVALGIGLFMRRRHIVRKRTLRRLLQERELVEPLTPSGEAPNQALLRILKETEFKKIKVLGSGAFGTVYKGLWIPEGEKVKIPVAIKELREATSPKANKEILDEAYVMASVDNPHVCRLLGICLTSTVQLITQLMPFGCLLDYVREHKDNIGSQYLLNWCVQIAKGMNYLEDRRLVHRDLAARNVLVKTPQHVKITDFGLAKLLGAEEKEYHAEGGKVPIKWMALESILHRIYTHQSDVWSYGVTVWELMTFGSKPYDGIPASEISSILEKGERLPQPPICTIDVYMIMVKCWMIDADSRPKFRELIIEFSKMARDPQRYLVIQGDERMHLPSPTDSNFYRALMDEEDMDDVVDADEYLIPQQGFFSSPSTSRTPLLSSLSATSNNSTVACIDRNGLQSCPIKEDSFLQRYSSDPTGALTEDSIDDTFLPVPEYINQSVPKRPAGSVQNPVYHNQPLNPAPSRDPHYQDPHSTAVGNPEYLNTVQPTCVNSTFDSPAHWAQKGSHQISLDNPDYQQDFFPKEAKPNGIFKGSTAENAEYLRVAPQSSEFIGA
T1 sequence (P04626 with tags, fused parts or gaps INS775YVMA): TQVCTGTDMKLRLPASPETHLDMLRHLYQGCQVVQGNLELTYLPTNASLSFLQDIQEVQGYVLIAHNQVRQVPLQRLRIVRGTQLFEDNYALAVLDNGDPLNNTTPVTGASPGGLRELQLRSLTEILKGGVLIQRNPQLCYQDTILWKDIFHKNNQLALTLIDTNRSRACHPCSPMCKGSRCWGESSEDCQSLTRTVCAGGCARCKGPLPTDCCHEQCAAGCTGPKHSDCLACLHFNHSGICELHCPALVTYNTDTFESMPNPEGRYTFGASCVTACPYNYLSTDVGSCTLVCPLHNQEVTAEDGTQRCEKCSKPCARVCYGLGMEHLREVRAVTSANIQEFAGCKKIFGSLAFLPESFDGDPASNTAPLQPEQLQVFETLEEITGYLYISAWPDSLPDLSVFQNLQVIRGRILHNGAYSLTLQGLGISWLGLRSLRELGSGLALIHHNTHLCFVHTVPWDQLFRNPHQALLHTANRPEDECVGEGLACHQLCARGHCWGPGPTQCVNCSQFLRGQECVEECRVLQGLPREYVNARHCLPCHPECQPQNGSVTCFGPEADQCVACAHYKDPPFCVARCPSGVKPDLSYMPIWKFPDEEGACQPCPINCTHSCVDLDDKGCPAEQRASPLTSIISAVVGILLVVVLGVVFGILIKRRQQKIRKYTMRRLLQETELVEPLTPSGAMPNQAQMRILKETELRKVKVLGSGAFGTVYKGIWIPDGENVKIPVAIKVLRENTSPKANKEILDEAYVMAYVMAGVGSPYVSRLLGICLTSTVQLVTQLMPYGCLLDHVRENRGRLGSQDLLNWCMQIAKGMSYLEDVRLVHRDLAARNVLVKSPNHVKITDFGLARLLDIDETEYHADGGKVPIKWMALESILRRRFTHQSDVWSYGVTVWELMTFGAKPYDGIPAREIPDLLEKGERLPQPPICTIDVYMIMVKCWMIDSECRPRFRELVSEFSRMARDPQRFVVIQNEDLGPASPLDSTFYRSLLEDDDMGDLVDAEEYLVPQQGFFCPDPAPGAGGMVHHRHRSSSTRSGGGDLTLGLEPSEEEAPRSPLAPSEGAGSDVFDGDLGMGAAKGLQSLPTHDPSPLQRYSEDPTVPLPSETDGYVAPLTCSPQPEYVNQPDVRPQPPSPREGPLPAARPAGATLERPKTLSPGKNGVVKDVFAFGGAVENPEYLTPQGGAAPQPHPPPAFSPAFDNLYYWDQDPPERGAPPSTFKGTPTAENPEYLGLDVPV
Sequence of EGFR Exon 20 INSNPH Ba/F3 (P00533 with tags, fused parts or gaps DUP771-773): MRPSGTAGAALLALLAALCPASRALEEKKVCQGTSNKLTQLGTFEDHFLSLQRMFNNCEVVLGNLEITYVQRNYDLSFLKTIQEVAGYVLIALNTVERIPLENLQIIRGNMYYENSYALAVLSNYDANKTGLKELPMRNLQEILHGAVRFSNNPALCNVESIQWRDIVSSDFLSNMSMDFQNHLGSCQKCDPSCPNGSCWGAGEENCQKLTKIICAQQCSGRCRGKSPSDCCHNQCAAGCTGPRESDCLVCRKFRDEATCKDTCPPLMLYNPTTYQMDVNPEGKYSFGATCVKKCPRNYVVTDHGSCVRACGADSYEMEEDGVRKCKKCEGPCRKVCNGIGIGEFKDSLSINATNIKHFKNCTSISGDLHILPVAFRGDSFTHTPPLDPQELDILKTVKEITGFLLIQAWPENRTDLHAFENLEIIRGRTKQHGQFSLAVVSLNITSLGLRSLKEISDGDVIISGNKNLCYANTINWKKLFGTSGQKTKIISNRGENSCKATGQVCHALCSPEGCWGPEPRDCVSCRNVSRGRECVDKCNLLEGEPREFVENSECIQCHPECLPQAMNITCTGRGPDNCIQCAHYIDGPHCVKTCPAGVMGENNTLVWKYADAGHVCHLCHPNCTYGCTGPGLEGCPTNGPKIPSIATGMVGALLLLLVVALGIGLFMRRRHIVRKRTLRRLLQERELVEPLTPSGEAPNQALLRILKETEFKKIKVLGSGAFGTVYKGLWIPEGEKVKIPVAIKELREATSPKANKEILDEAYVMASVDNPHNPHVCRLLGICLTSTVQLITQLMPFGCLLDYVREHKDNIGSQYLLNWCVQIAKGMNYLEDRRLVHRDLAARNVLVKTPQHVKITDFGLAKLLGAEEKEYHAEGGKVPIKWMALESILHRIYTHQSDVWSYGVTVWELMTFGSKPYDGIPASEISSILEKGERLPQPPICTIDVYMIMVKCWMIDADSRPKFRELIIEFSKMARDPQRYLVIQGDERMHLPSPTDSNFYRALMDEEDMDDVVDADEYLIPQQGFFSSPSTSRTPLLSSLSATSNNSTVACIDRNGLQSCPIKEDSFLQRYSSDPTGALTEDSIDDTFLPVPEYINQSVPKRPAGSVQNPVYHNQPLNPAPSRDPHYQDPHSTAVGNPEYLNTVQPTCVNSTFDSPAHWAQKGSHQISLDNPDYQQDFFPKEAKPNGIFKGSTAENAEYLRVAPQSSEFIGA

Row | SMILES | IC50 (HER2 INS YVMA) [nM] | GI50 [1] [nM] | GI50 [2] [nM] | IC50 (EGFR T790ML858R) [nM] | IC50 (EGFR wt) [nM] | IC50 (H1975) [nM] | IC50 (A431) [nM]
1 | C=CC(=O)Nc1cc(-c2c(-c3ccc(N4CCN(C)CC4)cc3)[nH]c3ncc(OC(F)(F)F)cc23)ccc1C [Example 188, N-(2-methyl-5-(2-(4-(4-methylpiperazin-1-yl)phenyl)-5-(trifluoromethoxy)-1H-pyrrolo[2,3-b]pyridin-3-yl)phenyl)acrylamide 2,2,2-trifluoroacetate] | ≤ 100 | 100 to 500 | 100 to 500 | ≤ 100 | ≤ 100 | 100 to 500 | 1000 to 100000
2 | C=CC(=O)Nc1cc(-c2c(-c3ccc(N4CCN(C)CC4)cc3)[nH]c3ncc(C(=O)NCc4ccc(CN5CCN(C)CC5)cc4)cc23)ccc1C [Example 122, 3-(3-acrylamido-4-methylphenyl)-N-(4-((4-methylpiperazin-1-yl)methyl)benzyl)-2-(4-(4-methylpiperazin-1-yl)phenyl)-1H-pyrrolo[2,3-b]pyridine-5-carboxamide] | ≤ 100 | 1000 to 10000 | 1000 to 10000 | ≤ 100 | ≤ 100 | 1000 to 100000 | 1000 to 100000
3 | C=CC(=O)Nc1cc(-c2c(-c3ccc(N4CCN(C)CC4)cc3)[nH]c3ncc(C(=O)NCCc4ccc(F)cc4)cc23)ccc1C [Example 124, 3-(3-acrylamido-4-methylphenyl)-N-(4-fluorophenethyl)-2-(4-(4-methylpiperazin-1-yl)phenyl)-1H-pyrrolo[2,3-b]pyridine-5-carboxamide] | 100 to 500 | 100 to 500 | 500 to 1000 | ≤ 100 | ≤ 100 | 500 to 1000 | 500 to 1000
4 | C=CC(=O)Nc1cc(-c2c(-c3ccc(N4CCN(C)CC4)cc3)[nH]c3ncc(C(=O)OC4CCCCC4)cc23)ccc1C [Example 137, cyclohexyl 3-(3-acrylamido-4-methylphenyl)-2-(4-(4-methylpiperazin-1-yl)phenyl)-1H-pyrrolo[2,3-b]pyridine-5-carboxylate] | 100 to 500 | 500 to 1000 | 500 to 1000 | ≤ 100 | ≤ 100 | 100 to 500 | 1000 to 100000
5 | C=CC(=O)N1CCc2ccc(-c3c(-c4ccc(N5CCN(C)CC5)cc4)[nH]c4ncc(C(=O)OC(C)C)cc34)cc21 [Example 192, isoproyl 3-(1-acryloylindolin-6-yl)-2-(4-(4-methylpiperazin-1-yl)phenyl)-1H-pyrrolo[2,3-b]pyridine-5-carboxylate 2,2,2-trifluoroacetate] | ≤ 100 | 100 to 500 | 500 to 1000 | ≤ 100 | ≤ 100 | 1000 to 100000 | 1000 to 100000
6 | C=CC(=O)Nc1cc(-c2c(-c3ccc(N(C)CCN(C)C)cc3)[nH]c3ncc(C(=O)OC(C)C)c(C)c23)ccc1C [Example 204, isopropyl 3-(3-acrylamido-4-methylphenyl)-2-(4-((2-(dimethylamino)ethyl)(methyl)amino)phenyl)-4-methyl-1H-pyrrolo[2,3-b]pyridine-5-carboxylate] | ≤ 100 | ≤ 100 | ≤ 100 | ≤ 100 | ≤ 100 | 100 to 500 | 1000 to 100000
7 | C=CC(=O)Nc1cc(-c2c(-c3ccc(N(C)CCN(C)C)cc3)[nH]c3ncc(C(=O)O)cc23)ccc1C [Example 153, 3-(3-acrylamido-4-methylphenyl)-2-(4-((2-(dimethylamino)ethyl)(methyl)amino)phenyl)-1H-pyrrolo[2,3-b]pyridine-5-carboxylic acid 2,2,2-trifluoroacetate] | ≤ 100 | > 10000 | > 10000 | ≤ 100 | ≤ 100 | > 10000 | > 10000
8 | C=CC(=O)N1CCCc2ccc(-c3c(-c4ccc(C5CCN(C)CC5)cc4)[nH]c4nccc(Cl)c34)cc21 [Example 87, 1-(7-(4-chloro-2-(4-(1-methylpiperidin-4-yl)phenyl)-1H-pyrrolo[2,3-b]pyridin-3-yl)-3,4-dihydroquinolin-1(2H)-yl)prop-2-en-1-one] | ≤ 100 | 500 to 1000 | 500 to 1000 | ≤ 100 | ≤ 100 | 100 to 500 | 1000 to 100000
9 | C=CC(=O)N1CCc2ccc(-c3c(-c4ccc(CN(C)C)cc4)[nH]c4nccc(OCC)c34)cc21 [Example 106, 1-(6-(2-(4-((dimethylamino)methyl)phenyl)-4-ethoxy-1H-pyrrolo[2,3-b]pyridin-3-yl)indolin-1-yl)prop-2-en-1-one] | ≤ 100 | 100 to 500 | 100 to 500 | ≤ 100 | ≤ 100 | ≤ 100 | 500 to 1000

Continued, values first:

Row | IC50 (HER2 INS YVMA) [nM] | GI50 [1] [nM] | GI50 [2] [nM] | IC50 (EGFR T790ML858R) [nM] | IC50 (EGFR wt) [nM] | IC50 (H1975) [nM] | IC50 (A431) [nM] | SMILES
10 | 1000 to 10000 | 1000 to 10000 | 1000 to 10000 | 100 to 500 | ≤ 100 | 1000 to 100000 | > 10000 | C=CC(=O)Nc1cc(-c2c(-c3ccc(N4CCN(C)CC4)cc3)[nH]c3ncc(C(=O)OC(C)C)cc23)c(C)cc1C [Example 202, isoproyl 3-(5-acrylamido-2,4-dimethylphenyl)-2-(4-(4-methylpiperazin-1-yl)phenyl)-1H-pyrrolo[2,3-b]pyridine-5-carboxylate 2,2,2-trifluoroacetate]
11 | ≤ 100 | 100 to 500 | 100 to 500 | ≤ 100 | ≤ 100 | 500 to 1000 | 1000 to 100000 | C=CC(=O)Nc1cc(-c2c(-c3ccnc(N4CCN(C)CC4)c3)[nH]c3ncc(C(=O)OC(C)C)cc23)ccc1C [Example 156, isoproyl 3-(3-acrylamido-4-methylphenyl)-2-(2-(4-methylpiperazin-1-yl)pyridin-4-yl)-1H-pyrrolo[2,3-b]pyridine-5-carboxylate 2,2,2-trifluoroacetate]
12 | 500 to 1000 | 1000 to 10000 | 1000 to 10000 | 100 to 500 | ≤ 100 | 1000 to 100000 | 1000 to 100000 | C=CC(=O)Nc1cc(-c2c(-c3ccnc(N4CCOCC4)c3)[nH]c3ncc(C(=O)OC(C)C)cc23)ccc1C [Example 166, isopropyl 3-(3-acrylamido-4-methylphenyl)-2-(2-morpholinopyridin-4-yl)-1H-pyrrolo[2,3-b]pyridine-5-carboxylate]
13 | ≤ 100 | 100 to 500 | 100 to 500 | ≤ 100 | ≤ 100 | 100 to 500 | 1000 to 100000 | C=CC(=O)Nc1cc(-c2c(-c3ccc(C4CCN(C)CC4)cc3)[nH]c3ncc(C(=O)OC(C)C)cc23)ccc1C [Example 149, isoproyl 3-(3-acrylamido-4-methylphenyl)-2-(4-(1-methylpiperidin-4-yl)phenyl)-1H-pyrrolo[2,3-b]pyridine-5-carboxylate 2,2,2-trifluoroacetate]
14 | ≤ 100 | 500 to 1000 | 500 to 1000 | ≤ 100 | ≤ 100 | 500 to 1000 | 1000 to 100000 | C=CC(=O)Nc1cc(-c2c(-c3cccc(CN4CCN(C)CC4)c3)[nH]c3ncc(C(=O)OC(C)C)cc23)ccc1C [Example 181, isopropyl 3-(3-acrylamido-4-methylphenyl)-2-(3-((4-methylpiperazin-1-yl)methyl)phenyl)-1H-pyrrolo[2,3-b]pyridine-5-carboxylate]

— patent US20220370440A1 (Lead Discovery Center GmbH, priority 2018, published 2022)
